Drawing on article PMC11215771 (Journal of Medicinal Chemistry, 2024), this text covers signal-to-background ratio for 1 compound.

The assay concerns the target T1, wild-type hBACE1 in CHO-K1 cells (Homo sapiens, UniProt P56817).
T1 construct: expressed in transfected cells; host or cells: CHO-K1
Briefly: Single molecule TIRF microscopy and bleaching step analysis in CHO-K1 cells. In kind it is cell-based. Particulars: 200 nM probe, fixed CHO-K1, TIRF, after rolling background subtraction. How it is done: Due to the high photostability and quantum yield of the Alexa dyes, the C3-compounds are potential tools for single molecule fluorescence microscopy of BACE1. […] CHO-K1 cells were transfected with wild-type BACE1. […] The samples were then recorded using total internal reflection fluorescence (TIRF) microscopy. […] Prior to analysis, ImageJ rolling background subtraction was applied[45] (Figure 6A, right panel). […] Single particles were identified and time traces of fluorescence intensity were extracted using GMimPro[46] (Figure 6B). The time traces were then subjected to a bleaching-step analysis with quickPBSA[47] (Figure 6B). […] The msfGFP was reported previously to display a fluorescence probability of about 50%, defined as combined probability of fluorescence, detection in the specific imaging system and identification in the analysis of a BACE1 molecule.[48] […] Here, the best fits indicated also a fluorescence probability of about 60%, but with a considerably lower fit error compared to dimers only (Figure 6D, blue traces).
The panel in the middle depicts typical single molecule complexes 48 h after transfection with 50 ng wild type BACE1. […] The insets highlight single fluorescence spots at higher magnification. […] (B) Single fluorescence spots were located and fluorescence intensities over time were extracted (see methods). […]

T1 sequence (P56817 46-501): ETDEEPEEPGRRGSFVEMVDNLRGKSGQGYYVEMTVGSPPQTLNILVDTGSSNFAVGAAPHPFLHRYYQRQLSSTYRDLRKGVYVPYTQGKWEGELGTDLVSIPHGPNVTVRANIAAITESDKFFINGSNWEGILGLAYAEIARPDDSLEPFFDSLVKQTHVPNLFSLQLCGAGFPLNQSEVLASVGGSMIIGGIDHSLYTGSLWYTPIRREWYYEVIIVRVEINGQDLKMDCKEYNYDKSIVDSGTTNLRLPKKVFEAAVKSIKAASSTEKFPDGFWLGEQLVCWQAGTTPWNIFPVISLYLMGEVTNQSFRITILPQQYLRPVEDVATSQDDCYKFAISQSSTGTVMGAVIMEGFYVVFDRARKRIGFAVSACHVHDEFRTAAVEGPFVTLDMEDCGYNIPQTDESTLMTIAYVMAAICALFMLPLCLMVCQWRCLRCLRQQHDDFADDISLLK

`C[C@@H](NC(=O)c1cc(C(=O)N[C@@H](Cc2ccccc2)[C@H](O)CNC2CC2)cc(N(C)S(=O)(=O)CCCNC(=O)c2ccc(C(=O)O)c(-c3c4ccc(=N)c(S(=O)(=O)O)c-4oc4c(S(=O)(=O)O)c(N)ccc34)c2)c1)c1ccccc1` [2-(6-Amino-3-iminio-4,5-disulfo-3H-xanthen-9-yl)-4-((3-(N-(3-(((2S,3R)-4-(cyclopropylamino)-3-hydroxy-1-phenylbutan-2-yl)carbamoyl)-5-(((R)-1-phenylethyl)carbamoyl)phenyl)-N-methylsulfamoyl)propyl)carbamoyl)benzoate]: the signal-to-background ratio turned out to be 4.8.
